Test results from patent publication EP0429333B1, “Process for producing oxazopyrroloquinolines, novel oxazopyrroloquinolines, and use of oxazopyrroloquinolines” (priority 1989, dated 1991).

Tests used:
[1] = test system: male SPF-ICR mice; experiment: in vivo
Protocol: (§1) (1) Acute toxicity test: • (i) To male SPF-ICR mice of 5 weeks old (supplied by Charles River Co.) were intraperitoneally administered PQQ·2Na and OPQs in the dosages of 20, 40, 80, 160 and 200 mg/kg body weight of mouse, respectively and they were bred at 25°C for 14 days. OPQ, 1-methylpropyl OPQ, 2-methylthioethyl OPQ, and benzyl OPQ were used as the OPQs. One group consisted of 8 mice. […] One group consisted of 8 mice. […] They were bred at 25°C for 14 days. One group consisted of eight mice. […] (2) Toxicity to kidney (i) Toxicity to kidney determined by urine examination: In the same manner as in the acute toxicity test, PQQ·2Na and OPQs were respectively intraperitoneally administered to mice and these mice were bred. Urine was collected every day and concentration of glucose in urine was obtained using Uristex II (manufactured by Miles·Sankyo Co.). […]

[2] = test system: kidney; experiment: Toxicity to kidney determined by blood examination; type: in vivo, mice
Protocol: After one day from administration, the mice were fasted (only water was given) and after lapse of 18 hours, blood was collected and serum was obtained therefrom. Glucose, urea nitrogen and creatinine in the serum were examined using FUJI Dry Chemslide (manufactured by Fuji Photo Film Co., Ltd.). […]
Thereafter, the mice were fasted (with giving only water) and after lapse of 18 hours, blood was collected and serum was obtained therefrom. Contents of glucose, urea nitrogen and creatinine in serum were obtained using FUJI Dry Chemslide. The results were shown by average value for eight mice.

[3] = target: aldose reductase of kidney (Canis lupus familiaris, UniProt A0A8I3P2L6); experiment: Inhibitory effect on aldose reductase of kidney; type: biochemical, dog; settings: read-out: Degree of inhibition for aldose reductase (%)
Protocol: Medulla of kidney of dog was homogenized with 10mM phosphoric acid buffer (pH 7.0) containing 2mM dithiothreitol in an amount of four times the volume of kidney medulla and subjected to centrifugation. The supernatant liquid was purified by affinity chromatography, gel filtration and chromatofocusing to obtain electrophoretically homogeneous aldose reductase. 0.05 ml of 3mM NADPH, 0.1 ml of DL-glyceraldehyde and 0.04 ml of distilled water were added to 0.8 ml of 0.1M phosphoric acid buffer (pH 6.2) and left to stand at 25°C for 3 minutes. Then, 0.01 ml of the aldose reductase solution was added thereto to start reaction and decreasing of absorbance of 340 nm was measured at 25°C with time. Amount of enzyme which consumes 1 µmole of NADPH for 1 minute was taken as 1 unit.

[4] = target: T1, aldose reductase of rabbit lens (Oryctolagus cuniculus, UniProt P15122); experiment: Inhibitory effect on aldose reductase of lens; type: biochemical; settings: read-out: Degree of inhibition for aldose reductase (%)
T1 construct: to obtain electrophoretically homogeneous aldose reductase; from tissue; host or cells: rabbit lens
Protocol: 0.05 ml of 3mM NADPH, 0.1 ml of DL-glyceraldehyde and 0.04 ml of distilled water were added to 0.8 ml of 0.1M phosphoric acid buffer (pH 6.2) and left to stand at 25°C for 3 minutes. Then, 0.01 ml of the aldose reductase solution was added thereto to start reaction and decreasing of absorbance of 340 nm was measured at 25°C with time. Amount of enzyme which consumes 1 µmole of NADPH for 1 minute was taken as 1 unit.
Enzyme activity was measured under the same conditions as in the above measurement of aldose reductase activity except that 0.04 ml of aqueous solution of inhibitory substance in various concentrations was added in place of 0.04 ml of distilled water and degree of inhibition was calculated from comparison of the enzyme activity with the enzyme activity obtained in the absence of inhibitor. (1) OPQ, (2) methyl OPQ, (3) 1-methylpropyl OPQ, (4) 2-methylpropyl OPQ, (5) 2-carbamoylethyl OPQ, (6) hydroxymethyl OPQ, (7) 2-methylthioethyl OPQ, (8) 2-carboxyethyl OPQ, (9) 4-hydroxybenzyl OPQ, (10) 1-methylethyl OPQ, and (11) benzyl OPQ were used as inhibition substances and (12) PQQ was used as control.
Lens of rabbit was homogenized with 10mM phosphoric acid buffer (pH 7.0) containing 2mM dithiothreitol in an amount of two times the volume of the lens and subjected to centrifugation. The supernatant liquid was purified by affinity chromatography, gel filtration and chromatofocusing to obtain electrophoretically homogeneous aldose reductase. Using (1) OPQ, (2) 1-methylpropyl OPQ, (3) 2-methylpropyl OPQ, (4) hydroxymethyl OPQ, and (5) 1-methylethyl OPQ as inhibition substances, degree of inhibition of these substances for aldose reductase of rabbit lens was examined in the same manner in Example 32.

[5] = Solubility of the isolated compound, described in words; type: physicochemical
[6] = test system: carbon tetrachloride (CCl4)-induced liver diseases; experiment: Pharmacological activity on carbon tetrachloride-induced liver diseases; type: in vivo, SD rats; settings: 5mg/kg rat twice, CCl4 1 ml/kg rat
[7] = in vivo; settings: mouse, in vivo, ip
Protocol: as §1

[8] = test system: cataract; experiment: Anti-cataract effect, intraperitoneal administration, 50 % galactose fed rats; type: in vivo, Sprague-Davley rats; settings: for Body weight (average): 20mg/kg rat intraperitoneally once a day
Protocol: Eightyfour male Sprague-Davley rats (supplied from Japan Charles Liver Co.) of four weeks old and having a body weight of 70 - 80 g were used and the following experiments were conducted. One group consisted of six rats.
The groups included normal group, 50 % galactose administration group, PQQ administration group, and OPQ administration group. Commercially available feeding stuff (manufactured by Japan Clea Co.) was given to the rats of normal group, and rats of 50 % galactose administration group, PQQ administration group and OPQ administration group were allowed to freely take powdery feeding stuff comprising a mixture of the above-mentioned commercially available powder feeding stuff and D-galactose for food additive in equal weight.
To the rats of PQQ and OPQ administration groups were intraperitoneally administered PQQ·2Na or OPQ in a dosage of 2 mg, 5 mg, 10 mg and 20 mg per 1 kg of rat once a day simultaneously with starting of galactose feeding and until termination of feeding.
On the 6th day and the 9th day from starting of experiment, eyeball was observed by stereoscopic microscope and judgment on cataract was made according to the following criteria. A0: No muddiness (normal) A1: Light white muddiness in the surface portion. A2: A slight heavy white muddiness in the surface portion. A3: Heavy white muddiness in the surface portion. A4: Heavy white muddiness in the surface portion and a slight white muddiness in the core portion. A5: Heavy white muddiness in the surface portion and the core portion.

CCC(C)c1nc2c3nc(C(=O)O)cc(C(=O)O)c3c3[nH]c(C(=O)O)cc3c2o1 (stereo not shown) [1-Methylpropyl OPQ, 5-(1-Methylpropyl)-2,8,10-tricarboxy-1H-oxazo[5,4-h]-pyrrolo[2,3-f]quinoline]
death of mice ([1]; mouse, in vivo): no mice died
Creatinine ([2]; serum, 40 mg/kg mouse intraperitoneally, Table 2, no administration 0.8): 0.8 mg/dL
Urea nitrogen ([2]; serum, 40 mg/kg mouse intraperitoneally, Table 2, no administration 24): 26 mg/dL
Glucose ([2]; serum, 40 mg/kg mouse intraperitoneally, Table 2, no administration 78): 87 mg/dL
Creatinine ([2]; serum, 80 mg/kg mouse intraperitoneally, Table 2, no administration 0.8): 0.8 mg/dL
Urea nitrogen ([2]; serum, 80 mg/kg mouse intraperitoneally, Table 2, no administration 24): 22 mg/dL
Glucose ([2]; serum, 80 mg/kg mouse intraperitoneally, Table 2, no administration 78): 104 mg/dL
Creatinine ([2]; serum, 160 mg/kg mouse intraperitoneally, Table 2, no administration 0.8): 0.8 mg/dL
Urea nitrogen ([2]; serum, 160 mg/kg mouse intraperitoneally, Table 2, no administration 24): 27 mg/dL
Glucose ([2]; serum, 160 mg/kg mouse intraperitoneally, Table 2, no administration 78): 87 mg/dL
Creatinine ([2]; serum, 200 mg/kg mouse intraperitoneally, Table 2, no administration 0.8): 0.8 mg/dL
Urea nitrogen ([2]; serum, 200 mg/kg mouse intraperitoneally, Table 2, no administration 24): 27 mg/dL
Glucose ([2]; serum, 200 mg/kg mouse intraperitoneally, Table 2, no administration 78): 66 mg/dL
inhibition at 0.1 µM ([3]; concentration 1x10^-7 M): 32.6%
inhibition at 0.2 µM ([3]; concentration 2x10^-7 M): 45.9%
inhibition at 0.5 µM ([3]; concentration 5x10^-7 M): 61.7%
inhibition at 1 µM ([4]; concentration 1x10^-6 M): 64.7%
inhibition at 0.1 µM ([4]; concentration 1x10^-7 M): 24%
inhibition at 0.2 µM ([4]; concentration 2x10^-7 M): 36.4%
inhibition at 0.5 µM ([4]; concentration 5x10^-7 M): 50.8%
solubility in acetone and diethyl ether ([5]; acetone and diethyl ether): did not dissolve
solubility in lower alcohols ([5]; lower alcohols): dissolved
solubility in water ([5]; water): easily soluble
solubility under neutral and alkaline conditions ([5]; water, neutral and alkaline conditions): very easily soluble
Total bilirubin ([6]; Table 27: CCl4 only 1.2, no administration 0.5): 0.7 mg/dL
GPT ([6]; Table 27: CCl4 only 818, no administration 16): 182 U/l
GOT ([6]; Table 27: CCl4 only 3308, no administration 144): 887 U/l

O=C(O)c1cc(C(=O)O)c2c(n1)C(=O)C(=O)c1cc(C(=O)O)[nH]c1-2 [PQQ·2Na, reference compound]
LD50 at 336 h [7]: ~70 mg/kg
death of mice ([1]; 80 mg intraperitoneally, 8 mice, 14 days): five mice died
death of mice ([1]; 160 mg and 200 mg intraperitoneally, 8 mice, 14 days): all of eight mice died
death of mice ([1]; mouse, in vivo): the mice survived
Creatinine ([2]; mouse, in vivo, ip, 20 mg/kg): 0.8 mg/dL
Glucose ([2]; mouse, in vivo, ip, 20 mg/kg): 70 mg/dL
Urea nitrogen ([2]; mouse, in vivo, ip, 20 mg/kg): 25 mg/dL
Creatinine ([2]; mouse, in vivo, ip, 40 mg/kg): 2.3 mg/dL
Glucose ([2]; mouse, in vivo, ip, 40 mg/kg): 60 mg/dL
Urea nitrogen ([2]; mouse, in vivo, ip, 40 mg/kg): 110 mg/dL
Creatinine ([2]; mouse, in vivo, ip, 80 mg/kg): 3.4 mg/dL
Glucose ([2]; mouse, in vivo, ip, 80 mg/kg): 57 mg/dL
Urea nitrogen ([2]; mouse, in vivo, ip, 80 mg/kg): 130 mg/dL
Creatinine ([2]; mouse, in vivo, ip, 160 mg/kg): 4.2 mg/dL
Glucose ([2]; mouse, in vivo, ip, 160 mg/kg): 35 mg/dL
Urea nitrogen ([2]; mouse, in vivo, ip, 160 mg/kg): 139 mg/dL
body weight ([8]; 10 mg and 20 mg/kg rat intraperitoneally once a day): reduction in body weight was recognized
Body weight (average) ([8]; 6th day, normal group about 115 g): * Body weight reduced (average 66 g). Body weight of rats of normal group was about 115 g on the average.
Body weight (average) ([8]; 9th day, normal group about 141 g): ** Body weight did not increase (average 77 g). Body weight of rats of normal group was about 141 g on the average.
